# Results taken from PubChem BioAssay (NCI).
#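 96-well plates; 48 h exposure; 5 concentrations. Endpoints by linear interpolation between flanking doses. Not reached: highest tested concentration assigned. The concentration for 50% growth inhibition is given as GI50. TGI marks complete inhibition of growth.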
# Key:
# Assay in all cases: inhibition of tumour cell growth, NCI panel, 48 h
# HOP-92 NSCLC = system: HOP-92 NSCLC
# MDA-MB-231 breast = system: MDA-MB-231 breast
# SNB-19 CNS = system: SNB-19 CNS
# SW-620 colon = system: SW-620 colon
# NCI-H23 lung = system: NCI-H23 lung
# HT29 colon = system: HT29 colon
# BT-549 breast = system: BT-549 breast
# MALME-3M melanoma = system: MALME-3M melanoma
# TK-10 renal = system: TK-10 renal
# COLO 205 colon = system: COLO 205 colon
# NCI/ADR-RES ovarian = system: NCI/ADR-RES ovarian
# CCRF-CEM leukemia = system: CCRF-CEM leukemia
# HOP-62 NSCLC = system: HOP-62 NSCLC
# MCF7 breast = system: MCF7 breast
# HCT-15 colon = system: HCT-15 colon
# EKVX NSCLC = system: EKVX NSCLC
# A498 renal = system: A498 renal
# OVCAR-5 ovarian = system: OVCAR-5 ovarian
# OVCAR-8 ovarian = system: OVCAR-8 ovarian
# LOX IMVI melanoma = system: LOX IMVI melanoma
# SN12C renal = system: SN12C renal
# UACC-62 melanoma = system: UACC-62 melanoma
# HCT-116 colon = system: HCT-116 colon
# 786-0 renal = system: 786-0 renal
# RXF 393 renal = system: RXF 393 renal
# NCI-H460 lung = system: NCI-H460 lung
# HS 578T breast = system: HS 578T breast
# KM12 colon = system: KM12 colon
# M14 melanoma = system: M14 melanoma
# ACHN renal = system: ACHN renal
# U251 CNS = system: U251 CNS
# UACC-257 melanoma = system: UACC-257 melanoma
# MOLT-4 leukemia = system: MOLT-4 leukemia
# CAKI-1 renal = system: CAKI-1 renal
# T-47D breast = system: T-47D breast
# HCC-2998 colon = system: HCC-2998 colon
# RPMI-8226 leukemia = system: RPMI-8226 leukemia
# SF-268 CNS = system: SF-268 CNS
# IGROV1 ovarian = system: IGROV1 ovarian
# K-562 leukemia = system: K-562 leukemia
# NCI-H522 lung = system: NCI-H522 lung
# SK-MEL-28 melanoma = system: SK-MEL-28 melanoma
# OVCAR-4 ovarian = system: OVCAR-4 ovarian
# A549 NSCLC = system: A549 NSCLC
# DU-145 prostate = system: DU-145 prostate
# SF-295 CNS = system: SF-295 CNS
# SK-MEL-2 melanoma = system: SK-MEL-2 melanoma
# NCI-H226 lung = system: NCI-H226 lung
# SF-539 CNS = system: SF-539 CNS
# HL-60(TB) leukemia = system: HL-60(TB) leukemia
# SNB-75 CNS = system: SNB-75 CNS
# PC-3 prostate = system: PC-3 prostate
# MDA-MB-435 = system: MDA-MB-435
# SR leukemia = system: SR leukemia
# UO-31 renal = system: UO-31 renal
# SK-MEL-5 melanoma = system: SK-MEL-5 melanoma
# SK-OV-3 ovarian = system: SK-OV-3 ovarian
compound,measurement,setting,value
CC(Nc1c(C#N)cnc2ccc(-c3cnc(N)nc3)cc12)c1ccccc1 (stereo not drawn),GI50,HOP-92 NSCLC,0.138 µM
same,TGI,HOP-92 NSCLC,0.827 µM
same,GI50,MDA-MB-231 breast,0.85 µM
same,TGI,MDA-MB-231 breast,16.8 µM
same,GI50,SNB-19 CNS,1.59 µM
same,TGI,SNB-19 CNS,20 µM
same,GI50,SW-620 colon,2.62 µM
same,TGI,SW-620 colon,12.2 µM
same,GI50,NCI-H23 lung,1.7 µM
same,TGI,NCI-H23 lung,11 µM
same,GI50,HT29 colon,1.63 µM
same,TGI,HT29 colon,13.9 µM
same,GI50,BT-549 breast,0.41 µM
same,TGI,BT-549 breast,4.51 µM
same,GI50,MALME-3M melanoma,0.527 µM
same,TGI,MALME-3M melanoma,3.79 µM
same,GI50,TK-10 renal,0.206 µM
same,TGI,TK-10 renal,1.86 µM
same,GI50,COLO 205 colon,1.78 µM
same,TGI,COLO 205 colon,6.82 µM
same,GI50,NCI/ADR-RES ovarian,2.34 µM
same,TGI,NCI/ADR-RES ovarian,28.3 µM
same,GI50,CCRF-CEM leukemia,1 µM
same,TGI,CCRF-CEM leukemia,40.2 µM
same,GI50,HOP-62 NSCLC,1.09 µM
same,TGI,HOP-62 NSCLC,9.82 µM
same,GI50,MCF7 breast,0.64 µM
same,TGI,MCF7 breast,> 35.3 µM
same,GI50,HCT-15 colon,1.24 µM
same,TGI,HCT-15 colon,> 38.6 µM
same,GI50,EKVX NSCLC,0.857 µM
same,TGI,EKVX NSCLC,> 23.8 µM
same,GI50,A498 renal,0.199 µM
same,TGI,A498 renal,1.04 µM
same,GI50,OVCAR-5 ovarian,0.787 µM
same,TGI,OVCAR-5 ovarian,13.6 µM
same,GI50,OVCAR-8 ovarian,1.72 µM
same,TGI,OVCAR-8 ovarian,11.6 µM
same,GI50,LOX IMVI melanoma,0.915 µM
same,TGI,LOX IMVI melanoma,5.85 µM
same,GI50,SN12C renal,0.765 µM
same,TGI,SN12C renal,14.8 µM
same,GI50,UACC-62 melanoma,1.08 µM
same,TGI,UACC-62 melanoma,4.53 µM
same,GI50,HCT-116 colon,1.71 µM
same,TGI,HCT-116 colon,5.93 µM
same,GI50,786-0 renal,1.36 µM
same,TGI,786-0 renal,10.2 µM
same,GI50,RXF 393 renal,0.559 µM
same,TGI,RXF 393 renal,3.9 µM
same,GI50,NCI-H460 lung,0.987 µM
same,TGI,NCI-H460 lung,11.6 µM
same,GI50,HS 578T breast,0.422 µM
same,TGI,HS 578T breast,2.84 µM
same,GI50,KM12 colon,1.75 µM
same,TGI,KM12 colon,8.64 µM
same,GI50,M14 melanoma,1.56 µM
same,TGI,M14 melanoma,11.2 µM
same,GI50,ACHN renal,0.785 µM
same,TGI,ACHN renal,13.2 µM
same,GI50,U251 CNS,1.55 µM
same,TGI,U251 CNS,11.2 µM
same,GI50,UACC-257 melanoma,2.11 µM
same,TGI,UACC-257 melanoma,10.5 µM
same,GI50,MOLT-4 leukemia,0.87 µM
same,TGI,MOLT-4 leukemia,6.14 µM
same,GI50,CAKI-1 renal,0.441 µM
same,TGI,CAKI-1 renal,4.28 µM
same,GI50,T-47D breast,0.446 µM
same,GI50,HCC-2998 colon,2 µM
same,TGI,HCC-2998 colon,13.6 µM
same,GI50,RPMI-8226 leukemia,0.382 µM
same,TGI,RPMI-8226 leukemia,2.96 µM
same,GI50,SF-268 CNS,1.24 µM
same,TGI,SF-268 CNS,8.79 µM
same,GI50,IGROV1 ovarian,0.374 µM
same,TGI,IGROV1 ovarian,2.4 µM
same,GI50,K-562 leukemia,2.16 µM
same,TGI,K-562 leukemia,> 100 µM
same,GI50,NCI-H522 lung,2.2 µM
same,TGI,NCI-H522 lung,10.5 µM
same,GI50,SK-MEL-28 melanoma,1.59 µM
same,TGI,SK-MEL-28 melanoma,8.97 µM
same,GI50,OVCAR-4 ovarian,0.527 µM
same,TGI,OVCAR-4 ovarian,4.76 µM
same,GI50,A549 NSCLC,1.03 µM
same,TGI,A549 NSCLC,11.7 µM
same,GI50,DU-145 prostate,0.796 µM
same,TGI,DU-145 prostate,13.3 µM
same,GI50,SF-295 CNS,1.08 µM
same,TGI,SF-295 CNS,> 23.1 µM
same,GI50,SK-MEL-2 melanoma,1.12 µM
same,TGI,SK-MEL-2 melanoma,2.95 µM
same,GI50,NCI-H226 lung,1.53 µM
same,TGI,NCI-H226 lung,16.6 µM
same,GI50,SF-539 CNS,1.31 µM
same,TGI,SF-539 CNS,5.98 µM
same,GI50,HL-60(TB) leukemia,2.46 µM
same,TGI,HL-60(TB) leukemia,> 39.5 µM
same,GI50,SNB-75 CNS,0.258 µM
same,TGI,SNB-75 CNS,2.45 µM
same,GI50,PC-3 prostate,0.72 µM
same,TGI,PC-3 prostate,10.6 µM
same,GI50,MDA-MB-435,1.67 µM
same,TGI,MDA-MB-435,9.57 µM
same,GI50,SR leukemia,0.741 µM
same,TGI,SR leukemia,> 43.4 µM
same,GI50,UO-31 renal,0.252 µM
same,TGI,UO-31 renal,5.84 µM
same,GI50,SK-MEL-5 melanoma,1.52 µM
same,TGI,SK-MEL-5 melanoma,3.09 µM
same,GI50,SK-OV-3 ovarian,1.21 µM
same,TGI,SK-OV-3 ovarian,5.72 µM
